In the supplement of paper PMC10307832:

Assays:
Assay in all cases: relative viability (nuclei count vs DMSO), 5 days (fraction); higher = more cells survive
Tipifarnib = compound: Cn1cncc1[C@@](N)(c1ccc(Cl)cc1)c1ccc2c(c1)c(-c1cccc(Cl)c1)cc(=O)n2C [Tipifarnib]
Procedure, shortened: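 In 1536-well plates, lung cancer cell lines rested overnight at 37 °C before five library-drug doses (not always all listed), √10 apart, were pinned onto vehicle-anchored plates. Nuclei were counted with MetaXpress from 4× Hoechst images taken after 5 days without medium change. Viability compares treated-well with vehicle-well nuclei as a median over plates, and plates needed control CV below 25% plus at least one doubling to pass.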

Tipifarnib + Phenformin = compound: Cn1cncc1[C@@](N)(c1ccc(Cl)cc1)c1ccc2c(c1)c(-c1cccc(Cl)c1)cc(=O)n2C [Tipifarnib] + N=C(N)NC(=N)NCCc1ccccc1 [Phenformin] (partner 250 µM)
Procedure, shortened: (§1)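 Lung cancer cell lines were seeded in 1536-well plates and dosed by pin tool the next day, with either a single drug or a fixed anchor-drug dose combined with five library-drug doses (not always all listed) spaced in √10 steps. Five days later, one step fixed the cells and stained their nuclei (final 0.05% Triton X-100, 1% formaldehyde, 1 ug/ml Hoechst), and nuclei were counted on 4× images. Relative viability is the nuclei count in treated wells divided by the count in vehicle wells, and each value is the median of duplicate plates.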

Tipifarnib + OSI-027 = compound: Cn1cncc1[C@@](N)(c1ccc(Cl)cc1)c1ccc2c(c1)c(-c1cccc(Cl)c1)cc(=O)n2C [Tipifarnib] + COc1cccc2cc(-c3nc([C@H]4CC[C@H](C(=O)O)CC4)n4ncnc(N)c34)[nH]c12 [OSI-027] (partner 0.5 µM)
Procedure, shortened: as §1

Tipifarnib + Trametinib = compound: Cn1cncc1[C@@](N)(c1ccc(Cl)cc1)c1ccc2c(c1)c(-c1cccc(Cl)c1)cc(=O)n2C [Tipifarnib] + CC(=O)Nc1cccc(-n2c(=O)n(C3CC3)c(=O)c3c(Nc4ccc(I)cc4F)n(C)c(=O)c(C)c32)c1 [Trametinib] (partner 0.02 µM)
Procedure, shortened: as §1

Cell Line | relative viability (Tipifarnib; 0.01 µM) | relative viability (Tipifarnib; 0.03162 µM) | relative viability (Tipifarnib; 0.1 µM) | relative viability (Tipifarnib; 0.3162 µM) | relative viability (Tipifarnib; 1 µM) | relative viability (Tipifarnib + Phenformin; first compound 0.01 µM) | relative viability (Tipifarnib + Phenformin; first compound 0.03162 µM) | relative viability (Tipifarnib + Phenformin; first compound 0.1 µM) | relative viability (Tipifarnib + Phenformin; first compound 0.3162 µM) | relative viability (Tipifarnib + Phenformin; first compound 1 µM) | relative viability (Tipifarnib + OSI-027; first compound 0.01 µM) | relative viability (Tipifarnib + OSI-027; first compound 0.03162 µM) | relative viability (Tipifarnib + OSI-027; first compound 0.1 µM) | relative viability (Tipifarnib + OSI-027; first compound 0.3162 µM) | relative viability (Tipifarnib + OSI-027; first compound 1 µM) | relative viability (Tipifarnib + Trametinib; first compound 0.01 µM) | relative viability (Tipifarnib + Trametinib; first compound 0.03162 µM) | relative viability (Tipifarnib + Trametinib; first compound 0.1 µM) | relative viability (Tipifarnib + Trametinib; first compound 0.3162 µM) | relative viability (Tipifarnib + Trametinib; first compound 1 µM)
HCC-78 | 1 | 0.948 | 0.808 | 0.768 | 0.633 | 0.699 | 0.756 | 0.611 | 0.558 | 0.423 | 0.325 | 0.376 | 0.354 | 0.373 | 0.308 | 0.966 | 0.766 | 0.647 | 0.623 | 0.664
HCC-366 | 1.06 | 0.939 | 0.781 | 0.541 | 0.0913 | 0.619 | 0.569 | 0.387 | 0.313 | 0.0592 | 1.01 | 0.778 | 0.265 | 0.18 | 0.0734 | 0.415 | 0.371 | 0.197 | 0.147 | 0.102
HCC-827 | 1.06 | 0.975 | 0.787 | 0.65 | 0.584 | 0.425 | 0.413 | 0.406 | 0.34 | 0.376 | 0.901 | 0.809 | 0.687 | 0.435 | 0.388 | 0.529 | 0.598 | 0.481 | 0.479 | 0.504
HOP-62 | 0.833 | 0.57 | 0.482 | 0.333 | 0.454 | 0.573 | 0.418 | 0.403 | 0.353 | 0.347 | 0.639 | 0.382 | 0.33 | 0.263 | 0.317 | 0.375 | 0.297 | 0.258 | 0.261 | 0.282
IA-LM | 0.426 | 0.529 | 0.376 | 0.185 | 0.184 | – | – | – | – | – | – | – | – | – | – | – | – | – | – | –
LC-2-ad | 0.925 | 0.783 | 0.636 | 0.614 | 0.403 | 0.566 | 0.532 | 0.498 | 0.568 | 0.372 | 0.765 | 0.755 | 0.522 | 0.499 | 0.438 | 0.938 | 0.661 | 0.669 | 0.561 | 0.532
LCLC-97TM1 | 0.98 | 0.707 | 0.878 | 0.703 | 0.19 | 0.423 | 0.382 | 0.446 | 0.355 | 0.231 | 0.402 | 0.409 | 0.358 | 0.286 | 0.22 | 0.202 | 0.209 | 0.171 | 0.17 | 0.157
LCLC-103H | 1.06 | 1.04 | 0.927 | 0.817 | 0.756 | 0.326 | 0.319 | 0.275 | 0.267 | 0.295 | 0.383 | 0.445 | 0.372 | 0.363 | 0.31 | 0.649 | 0.674 | 0.646 | 0.642 | 0.667
LK-2 | 1.03 | 0.857 | 0.809 | 0.615 | 0.607 | 0.471 | 0.11 | 0.428 | 0.248 | 0.184 | 0.183 | 0.193 | 0.195 | 0.165 | 0.164 | 0.613 | 0.971 | 0.766 | 0.559 | 0.597
